According to patent US7375088B2, “Polyene polyketides, processes for their production and their use as a pharmaceutical” (Thallion Pharmaceuticals Inc., priority 2003, dated 2008):

Assays:
Aspergillus flavus = test: Disk diffusion assay (MEC and zone of inhibition); format: cell-based; settings: for ZOI (zone of inhibition of fungal growth calculated for each MEC): at the MEC; for ZOI (zone of inhibition of fungal growth calculated for each MEC) / MEC (minimum effective concentration): 24 hours of incubation; for MEC (minimum effective concentration): disk diffusion
Aspergillus fumigatus = test: Disk diffusion assay (MEC and zone of inhibition); format: cell-based; settings: for ZOI (zone of inhibition of fungal growth calculated for each MEC): at the MEC; for ZOI (zone of inhibition of fungal growth calculated for each MEC) / MEC (minimum effective concentration): 24 hours of incubation; for MEC (minimum effective concentration): disk diffusion

Row | SMILES | ZOI (zone of inhibition of fungal growth calculated for each MEC) (Aspergillus flavus) | MEC (minimum effective concentration) (Aspergillus flavus) | ZOI (zone of inhibition of fungal growth calculated for each MEC) (Aspergillus fumigatus) | MEC (minimum effective concentration) (Aspergillus fumigatus) | antifungal activity in disk diffusion assay (Aspergillus flavus) | antifungal activity in disk diffusion assay (Aspergillus fumigatus)
1 | CC[C@H](C)C[C@H](C)CCCCCCCCC(=O)N[C@H]1C[C@@H](O)[C@@H](NCCN)NC(=O)[C@@H]2[C@@H](O)CCN2C(=O)[C@H]([C@H](O)CCN)NC(=O)[C@H]([C@H](O)[C@@H](O)c2ccc(O)cc2)NC(=O)[C@@H]2C[C@@H](O)CN2C(=O)[C@H]([C@@H](C)O)NC1=O [Casponfungin] | 0.7 mm | 2.5 µg/mL | 0.7 mm | 2.5 µg/mL | – | –
2 | OC(Cn1cncn1)(Cn1cncn1)c1ccc(F)cc1F [Fluconazole] | 0 mm | 0 µg/mL | 0 mm | 0 µg/mL | inactive | inactive
3 | CCC(C)n1ncn(-c2ccc(N3CCN(c4ccc(OCC5COC(Cn6cncn6)(c6ccc(Cl)cc6Cl)O5)cc4)CC3)cc2)c1=O (centres unmarked) [Itraconazole] | 1.7 mm | 0.5 µg/mL | 1.7 mm | 1.0 µg/mL | – | –
